Consider two compounds from ChEMBL document CHEMBL1127159, “Preparation and biological evaluation of -fluoromethyl--methylene--butyrolactone and -butyrolactam” (Bioorg Med Chem Lett, 1993).

A word on the IC50: it is the concentration that inhibits the measured activity by half.

Holding throughout (format): functional, cell-based
One test deals with L1210/C. The experiment in a line: The compound was evaluated for antitumoral activity against mouse leukemia cell line L1210/c after 72 hr of incubation. The note with it: L1210, 72 h.
In another test the test system is CCRF-CEM. Kind of test: The compound was evaluated for antitumoral activity against human leukemia cell line CCRF CEM after 72 hr of incubation.
Another test relates to T-24. The experiment in a line: The compound was evaluated for antitumoral activity against human cancer cell line T24 after 72 hr of incubation. The note with it: T-24, 72 h.
For another test, the system named is SK-MEL-28. The experiment in a line: The compound was evaluated for antitumoral activity against human melanoma cell line P36 after 72 hr of incubation. The note with it: SK-MEL-28, 72 h.
The next test has as its system SW480. The experiment in a line: The compound was evaluated for antitumoral activity against human cancer cell line SW480 after 72 hr of incubation. As to conditions: SW480, 72 h.

Each structure is given as a SMILES string. ≈ marks a conversion by molar mass, not a printed value.

For `C=C1CC(C(F)F)OC1=O` (stereo not given), the IC50 in the test with L1210/C stood at 3 µg/mL (≈ 20.3 µM); in the test on CCRF-CEM, 4 µg/mL (≈ 27 µM); with T-24 it was 0.5 µg/mL (≈ 3.38 µM); in the test on SK-MEL-28, 2 µg/mL (≈ 13.5 µM); with SW480, 4 µg/mL (≈ 27 µM).
`O=c1[nH]cc(F)c(=O)[nH]1` [FLUOROURACIL]: the IC50 came out at 0.2 µg/mL (≈ 1.54 µM) in the test with L1210/C; 4 µg/mL (≈ 30.8 µM) in the test with CCRF-CEM; 6 µg/mL (≈ 46.1 µM) in the test on T-24; 11 µg/mL (≈ 84.6 µM) with SK-MEL-28; 6 µg/mL (≈ 46.1 µM) in the test with SW480.
